# Structures can show the parent of a compound that is named as a salt. Where two headings read alike, the source gives them in different places.
# How the values were obtained:
# [1] = target: T1, human alpha 1a adrenergic receptor (Homo sapiens, UniProt P35348); test: Alpha 1a Adrenergic Receptor Binding (competition binding, [125I]-HEAT); conditions: human alpha 1a membranes, [125I]-HEAT competition, room temperature, one hour
# T1 sequence (P35348 1-466): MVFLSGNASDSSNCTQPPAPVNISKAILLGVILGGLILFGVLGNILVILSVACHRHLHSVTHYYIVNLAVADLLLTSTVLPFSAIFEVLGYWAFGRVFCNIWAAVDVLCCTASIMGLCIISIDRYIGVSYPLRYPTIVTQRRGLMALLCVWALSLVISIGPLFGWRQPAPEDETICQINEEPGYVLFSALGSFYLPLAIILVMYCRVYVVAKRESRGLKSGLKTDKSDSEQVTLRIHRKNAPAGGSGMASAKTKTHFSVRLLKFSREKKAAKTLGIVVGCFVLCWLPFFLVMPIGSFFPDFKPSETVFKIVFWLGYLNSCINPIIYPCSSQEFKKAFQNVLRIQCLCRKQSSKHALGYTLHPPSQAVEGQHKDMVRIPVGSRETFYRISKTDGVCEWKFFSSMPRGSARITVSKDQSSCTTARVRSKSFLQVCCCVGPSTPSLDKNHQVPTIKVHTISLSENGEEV
# Description: Screening Assay: Alpha 1a Adrenergic Receptor Binding
# Membranes prepared from the stably transfected human alpha 1a cell line (ATCC CRL 11140) were used to identify compounds that bind to the human alpha 1a adrenergic receptor. These competition binding reactions (total volume=200 μl) contained 50 mM Tris-HCl pH. 7.4, 5 mM EDTA, 150 mM NaCl, 100 pM [^125 I]-HEAT, membranes prepared from the alpha 1a cell line and increasing amounts of unlabeled ligand. Reactions were incubated at room temperature for one hour with shaking. Reactions were filtered onto Whatman GF/C glass fiber filters with a Inotec 96 well cell harvester. Filters were washed three times with ice cold buffer and bound radioactivity was determined (Ki).
# [2] = target: T2, human alpha 1b adrenergic receptor (Homo sapiens, UniProt P35368); test: Selective Binding Assay, alpha 1b (competition binding, [125I]-HEAT); conditions: alpha 1a versus alpha 1b, [125I]-HEAT competition binding
# T2 construct: host or cells: stably transfected cell line
# T2 sequence (P35368 1-520): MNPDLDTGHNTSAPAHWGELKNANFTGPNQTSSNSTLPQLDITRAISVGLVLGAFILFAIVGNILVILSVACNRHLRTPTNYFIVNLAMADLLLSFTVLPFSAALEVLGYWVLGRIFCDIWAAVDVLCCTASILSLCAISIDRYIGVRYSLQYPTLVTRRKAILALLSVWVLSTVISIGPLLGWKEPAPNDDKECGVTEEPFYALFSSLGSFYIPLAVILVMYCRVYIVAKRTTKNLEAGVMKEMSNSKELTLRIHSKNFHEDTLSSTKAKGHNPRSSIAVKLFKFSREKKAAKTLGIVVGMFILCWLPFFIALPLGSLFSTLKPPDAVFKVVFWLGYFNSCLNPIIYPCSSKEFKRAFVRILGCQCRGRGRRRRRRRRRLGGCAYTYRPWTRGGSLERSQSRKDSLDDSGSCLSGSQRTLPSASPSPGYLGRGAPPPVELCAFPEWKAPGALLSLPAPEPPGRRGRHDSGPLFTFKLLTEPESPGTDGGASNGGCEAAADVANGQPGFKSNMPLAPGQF
# Description: (§1) Membranes prepared from stably transfected human alpha 1d and alpha 1b cell lines (ATCC CRL 11138 and CRL 11139, respectively) were used to identify compounds that selectively bind to the human alpha 1a adrenergic receptor. These competition binding reactions (total volume=200 μl) contained 50 mM Tris-HCl pH. 7.4, 5 mM EDTA, 150 mM NaCl, 100 pM [^125 I]-HEAT, membranes prepared from cell lines transfected with the respective alpha 1 subtype expression plasmid and increasing amounts of unlabeled ligand. Reactions were incubated at room temperature for one hour with shaking. Reactions were filtered onto Whatman GF/C glass fiber filters with a Inotec 96 well cell harvester. Filters were washed three times with ice cold buffer and bound radioactivity was determined (Ki).
# [3] = target: T3, human alpha 1d adrenergic receptor (Homo sapiens, UniProt P25100); test: Selective Binding Assay, alpha 1d (competition binding, [125I]-HEAT); conditions: alpha 1a versus alpha 1d, [125I]-HEAT competition binding
# T3 construct: host or cells: stably transfected cell line
# T3 sequence (P25100 1-572): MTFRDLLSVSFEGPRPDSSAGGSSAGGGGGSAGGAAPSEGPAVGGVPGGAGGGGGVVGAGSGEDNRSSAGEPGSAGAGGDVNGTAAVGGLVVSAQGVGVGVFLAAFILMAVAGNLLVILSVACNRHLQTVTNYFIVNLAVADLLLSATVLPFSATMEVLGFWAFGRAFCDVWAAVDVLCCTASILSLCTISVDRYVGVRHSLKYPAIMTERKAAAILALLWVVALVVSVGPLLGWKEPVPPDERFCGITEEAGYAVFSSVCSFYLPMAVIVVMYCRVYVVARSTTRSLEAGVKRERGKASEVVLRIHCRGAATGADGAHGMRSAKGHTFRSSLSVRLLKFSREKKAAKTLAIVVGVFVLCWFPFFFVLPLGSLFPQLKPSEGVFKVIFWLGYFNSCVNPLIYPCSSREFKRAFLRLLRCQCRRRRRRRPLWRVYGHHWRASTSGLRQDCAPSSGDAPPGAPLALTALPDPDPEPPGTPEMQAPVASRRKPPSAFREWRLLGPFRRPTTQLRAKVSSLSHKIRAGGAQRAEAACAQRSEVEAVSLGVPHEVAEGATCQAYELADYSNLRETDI
# Description: as §1
Structure (SMILES),Ki ([1]; alpha 1a Ki) [nM],Ki ([1]; read-out: alpha 1a Ki) [nM],other results
"Cc1ccc2c(c1)CCC21NC(=O)N(CCCN2CCC3(CCc4ccccc43)CC2)C1=O (racemic) [Compound 33, (+/ -)-1-{3-{Spiro[indano-1,4'-piperidin]-1-yl}propyl}-5'-methyl-spiro[imidazolidine-4,1'indan]-2,5-dione hydrochloride]",< 10,–,–
N#CC1(c2ccccc2)CCN(CCCN2C(=O)NC3(CCc4cc(F)ccc43)C2=O)CC1 (stereo not shown) [Compound 10],< 10,–,–
O=C1NC2(CCc3cc(F)ccc32)C(=O)N1CCCN1CCC2(CCc3ccccc32)CC1 (stereo not shown) [Compound 14],< 100,–,–
"N#Cc1cc(F)ccc1C1CCN(CCCN2C(=O)NC3(CCSc4cc(F)ccc43)C2=O)CC1 (racemic) [Compound 45, (+/ -)-1'-{3-[4-(4-Fluoro-2-cyano-phenyl)piperidin-1-yl]propyl}-7-fluoro-2,3-dihydro-spiro[4H-1-benzothiopyran-4,4'-imidazolidine]-2',5'-dione hydrochloride]",–,< 10,–
"N#Cc1cc(F)ccc1C1CCN(CCCN2C(=O)NC3(CCc4cc(Cl)ccc43)C2=O)CC1 (racemic) [Compound 23, (+/ -)-1-{3-[4-(4-Fluoro-2-cyanophenyl)piperidin-1-yl]propyl}-5'-chloro-spiro[imidazolidine-4,1'indan]-2,5-dione hydrochloride]",–,< 10,–
"O=C1NC2(CCOc3cc(F)ccc32)C(=O)N1CCCN1CCC(c2ccc(F)cc2)CC1 (single isomer, unassigned; (+)) [Compound 42, (+)-1'-{3-[4-(4-fluorophenyl)piperidin-1-yl]propyl}-7-fluoro-2,3-dihydro-spiro[4H-1-benzopyran-4,4'-imidazolidine]-2',5'-dione]",–,< 10,–
"N#Cc1cc(F)ccc1C1CCN(CCCN2C(=O)NC3(CCc4cc(F)c(F)cc43)C2=O)CC1 (racemic) [Compound 18, (+/ -)-1-{3-[4-(4-Fluoro-2-cyanophenyl)piperidin-1-yl]propyl}-5',6'-difluoro-spiro[imidazolidine-4,1'indan]-2,5-dione hydrochloride]",–,< 10,–
"Cl.N#CC1(c2ccccc2)CCN(CCCN2C(=O)NC3(CCCCc4ccc(F)cc43)C2=O)CC1 (racemic) [Compound 48, (+/ -)-1'-[3-(4-Cyano-4-phenylpiperidin-1-yl)propyl]-3-fluoro-6,7,8,9-tetrahydro-spiro[5H-benzocycloheptene-5,4'-imidazolidine]-2',5'-dione hydrochloride]",–,–,fold more selective in binding to alpha 1a receptors versus binding to the alpha 1b receptors [2]: at least 10 fold; fold more selective in binding to alpha 1a receptors versus binding to the alpha 1d receptors [3]: at least 10 fold
"Cl.O=C1Nc2ccc(Cl)cc2C2(CCN(CCCN3C(=O)NC4(CCc5cc(F)ccc54)C3=O)CC2)O1 (racemic) [Compound 15, (+/ -)-1-{3-{6-Chlorospiro[4H-3,1-benzoxazine-4,4'-piperidin]-2(1H)-on-1'-yl}propyl}-5'-fluoro-spiro[imidazolidine-4,1'indan]-2,5-dione hydrochloride]",< 100,–,fold more selective in binding to alpha 1a receptors versus binding to the alpha 1b receptors [2]: at least 10 fold; fold more selective in binding to alpha 1a receptors versus binding to the alpha 1d receptors [3]: at least 10 fold
O=C1NC2(CCc3cc(Cl)ccc32)C(=O)N1CCCN1CCC2(CCc3ccccc32)CC1 (stereo not shown) [Compound 28],< 10,–,–
"Cc1ccc2c(c1)CCC21NC(=O)N(CCCN2CCC(c3ccc(F)cc3C#N)CC2)C1=O (racemic) [Compound 36, (+/ -)-1-{3-[4-(4-Fluoro-2-cyanophenyl)piperidin-1-yl]propyl}3-5'-methyl-spiro[imidazolidine-4,1'indan]-2,5-dione hydrochloride]",–,< 10,–
"N#Cc1cc(F)ccc1C1CCN(CCCN2C(=O)NC3(CCCOc4cc(F)ccc43)C2=O)CC1 (racemic) [Compound 50, (+/ -)-1-{3-[4-(4-fluoro-2-cyano-phenyl)piperidin-1-yl]propyl}-8-fluoro-2,3,4,5-tetrahydro-spiro[1-benzoxepin-5(2H),4'-imidazolidine]-2',5'-dione hydrochloride]",–,< 10,–
"O=C1Nc2ccc(Cl)cc2C2(CCN(CCCN3C(=O)NC4(CCc5cc(Cl)ccc54)C3=O)CC2)O1 (racemic) [Compound 29, (+/ -)-1-{3-{6-Chlorospiro[4H-3,1-benzoxazine-4,4'-piperidin]-2(1H)-on-1'-yl}propyl}-5'-chloro-spiro[imidazolidine-4,1'indan]-2,5-dione hydrochloride]",< 10,–,–
"O=C1NC2(CCc3cc(F)ccc32)C(=O)N1CCCN1CCC2(CCc3ccccc32)CC1 (racemic) [Compound 12, (+/ -)-1-{3-{Spiro[indano-1,4'-piperidin]-1-yl}propyl}-5'-fluoro-spiro[imidazoline-4,1'indan]-2,5-dione hydrochloride]",< 10,–,–
N#Cc1cc(F)ccc1C1CCN(CCCN2C(=O)NC3(CCc4cc(F)c(F)cc43)C2=O)CC1 (stereo not shown) [Compound 19],–,< 10,–
"CC(CCN1C(=O)NC2(CCc3cc(Cl)ccc32)C1=O)N1CCC(c2ccc(F)cc2)CC1.Cl (racemic) [Compound 51, (+/ -)-1-{3-[4-(4-fluorophenyl)piperidin-1-yl]butyl}-5'-chloro-spiro[imidazolidine-4,1'indan]-2,5-dione hydrochloride]",–,–,fold more selective in binding to alpha 1a receptors versus binding to the alpha 1b receptors [2]: at least 10 fold; fold more selective in binding to alpha 1a receptors versus binding to the alpha 1d receptors [3]: at least 10 fold
"Cc1ccc2c(c1)CCC21NC(=O)N(CCCN2CCC3(CCc4ccccc43)CC2)C1=O (single isomer, unassigned; (+)) [Compound 35, (+)-1-{3-{spiro[indano-1,4'-piperidin]-1-yl}propyl}-5'-methyl-spiro[imidazolidine-4,1'indan]-2,5-dione]",< 10,–,–
N#Cc1cc(F)ccc1C1CCN(CCCN2C(=O)NC3(CCc4cc(Cl)ccc43)C2=O)CC1 (stereo not shown) [Compound 24],–,< 10,–

# — patent US6316437A, “Spirohydantoin compounds and uses thereof” (Merck & Co., Inc., priority 2000, dated 2001)
